Test results as given in US10274488B2, “Glycan arrays on PTFE-like aluminum coated glass slides and related methods” (Academia Sinica, priority 2008, dated 2019).

Legend:
Format in all cases: biochemical, Clostridium thermocellum
[1] = system: endoglucanase 44A; assay: Enzymatic hydrolysis in solution with purified endoglucanase 44A, MS-TOF assay; conditions: reaction in solution
Procedure: (§1) To verify, the exoglucanases (L3) and endoglucanase (44A) were prepared according methods well known in the literature with minor modifications. First, enzymatic hydrolysis reactions were conducted in solution with the purified enzymes using substrates 8, 9 and 10. At the completion of the reaction, the solution mixtures were transferred to the PTFE-like ACG slide, and prepared by using the same washing procedures before being subjected to MS-TOF assay.
(§2) For each carbohydrate, a specific enzyme was added: (a) is the control run without enzymes, (b) is exoglucanase L3, and (c) is endoglucanase 44A. […]
(§3) Cellulase was prepared (5 U/mL in 25 mM pH 5.05 NaOAc buffer solution). Substrate was also dissolved in NaOAc buffer solution (25 mM, pH 5.05) to give 0.5 mM substrate solution. Add 100 uL cellulase solution to 100 uL substrate solution in eppendorf to have a 2.5 U/mL cellulase solution with 0.25 mM substrate. This solution was incubated in 37° C. for 18 hours. Add 100 μL incubated solution onto the slide loaded in FAST® Frame. Put the slide in dry box to remove the water, and then use high vacuum to remove trace water. 100 μL water was used to rinse each well of the FAST® Frame multi-slide plate to solve and remove the salt of the buffer solution. Remove any residual water on the plate by high vacuum and then analyzed the slide by MALDI-TOF Ultra-Flex II.
(§4) The genomic DNA of Sulfolobus solfataricus (ATCC 35092) and Clostridium thermocellum (ATCC 27405) were obtained from the ATCC biological resource center. The Sso7d (NCBI accession number: AAK42090) gene fragment was amplified directly from the Sulfolobus solfataricus genome by polymerase chain reaction (PCR) with forward 5′ […] 3′ (SEQ ID NO: 1) and reverse 5′ […] 3′ (SEQ ID NO: 2) primers. The PCR product encoding Sso7d was digested with NdeI and BamHI and subsequently cloned into expression vector pET-28a (Novagen) to generate pET-28-Sso7d. […]

[2] = system: exoglucanase L3; assay: Enzymatic hydrolysis in solution with purified exoglucanase L3, MS-TOF assay; conditions: reaction in solution
Procedure: as §1, §2, §3, §4

[3] = system: exoglucanase L3; assay: Enzymatic hydrolysis on the PTFE-like ACG surface with exoglucanase L3, MS-TOF assay; conditions: substrate immobilized on the PTFE-like ACG surface, 24 hours of incubation
Procedure: as §2
For comparison and as illustrated according to implementations shown in FIG. 23, substrate 8, 9, and 10 were immobilized on the PTFE-like ACG surface and carried out the cellulase hydrolysis on the surface directly, after the same washing procedures, these slides were subjected to MS-TOF assay. […] The endoglucanase 44A can't accept compound 8 or 9 as a substrate. […] From the above results, the cellotetraose substrate 10 was the best carbohydrate to create array on the PTFE-like ACG surface for the experiments conducted. By using this array, the activity and specificity of unknown cellulase may be examined.
Cellulase was prepared (5 U/mL in 25 mM pH 5.05 NaOAc buffer solution). Substrate was also dissolved in NaOAc buffer solution (25 mM, pH 5.05) to give 0.5 mM substrate solution. Add 50 μL cellulase solution to 50 μL substrate solution onto the glass slide which was loaded in FAST® Frame multi-slide plate to have a 2.5 U/mL cellulase solution with 0.25 mM substrate. […] Put the slide in dry box to remove the water, and then use high vacuum to remove trace water. 100 uL water was used to rinse each well of the FAST® Frame multi-slide plate to solve and remove the salt of the buffer solution. Remove any residual water on the plate by high vacuum and then analyzed the slide by MALDI-TOF Ultra-Flex II.
as §4, with “primers.” for “primers. The PCR product encoding Sso7d was digested with NdeI and BamHI and subsequently cloned into expression vector pET-28a (Novagen) to generate pET-28-Sso7d.”

Cleavage of the substrate by endoglucanase 44A (in words) [1]	Cleavage of the substrate by exoglucanase L3 (in words) [2]	Cleavage of the substrate by exoglucanase L3 (in words) [3]	Compound
can't accept	slowly	only cleaved a fraction	O=C(NCCCCCO[C@@H]1O[C@H](CO)[C@@H](O[C@@H]2O[C@H](CO)[C@@H](O)[C@H](O)[C@H]2O)[C@H](O)[C@H]1O)OCCCC(F)(F)C(F)(F)C(F)(F)C(F)(F)C(F)(F)C(F)(F)C(F)(F)C(F)(F)F [Compound 8, [(4,4,5,5,6,6,7,7,8,8,9,9,10,10,11,11,12,12,12-nonadecafluorododecoxycarbonyl-amino)pentyl] ß-D-cellobioside]
can't accept	quickly	cleaved the cellobiose quickly	O=C(NCCCCCO[C@@H]1O[C@H](CO)[C@@H](O[C@@H]2O[C@H](CO)[C@@H](O[C@@H]3O[C@H](CO)[C@@H](O)[C@H](O)[C@H]3O)[C@H](O)[C@H]2O)[C@H](O)[C@H]1O)OCCCC(F)(F)C(F)(F)C(F)(F)C(F)(F)C(F)(F)C(F)(F)C(F)(F)C(F)(F)C(F)(F)F [Compound 9, [(4,4,5,5,6,6,7,7,8,8,9,9,10,10,11,11,12,12,12-nonadecafluorododecoxycarbonyl-amino)pentyl] ß-D-glucopyranosyl-(1→4)-ß-D-glucopyranosyl-(1→4)- -ß-D-glucopyranoside]
